Results taken from PubChem BioAssay AID2060912 (Molecular Pharmacology Branch, DTP, NCI, 2025).
Several values for one entry are separate records, joined by “and”; a condition that tells them apart may be missing. Identical values can stand only once.

Tested on: HUVEC/MSC spheroids viability
Assay: Human HUVEC/MSC cell line growth inhibition [KRAS2];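 on viability, T/C: percent of DMSO vehicle control luminescence so 100% = untreated viability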
Details: for viability, T/C: stronger effect = lower value
From the text: Multicellular complex tumor spheroid response to RAS pathway inhibitors in combination with a targeted agents in patient-derived cell lines with oncogenic KRAS variants from multiple cancer types
A high-throughput screen of multi-cell type tumor spheroids was designed to identify active combinations of targeted small molecules and KRAS pathway inhibitors. Complex spheroids include a stromal component modeled by human endothelial cells (HUVEC) and fibroblasts modeled by human mesenchymal stem cells (MSCs). The concentration ranges selected for each drug and investigational agent were based upon clinically achievable concentrations if the clinical Cmax of the agent was known. * [This particular assayID is a followup dataset requested by reviewers of the manuscript. It is a test of the HUVEC and MSC without the tumor cells, and was conducted using different drug plates and a different plate layout.]
Compounds. The drugs and investigational agents: BI-3406 (NSC825286), BAY-293 (NSC824723), batoprotafib (TNO155; NSC825523), sotorasib (AMG 510; NSC818433), MRTX1257 (NSC819558), elimusertib (BAY 1895344; NSC800525), molibresib (GSK525762; NSC774829), temuterkib (LY3214996; NSC803410), venetoclax (NSC766270), alisertib (NSC759677), olaparib (NSC753686), talazoparib (NSC767125), erdafitinib (NSC781556), ipatasertib (NSC767898), cabozantinib (NSC761068), nintedanib (NSC756659), abemaciclib (NSC768073), docetaxel (NSC628503), trametinib (NSC758246), and sapanisertib (NSC764658) were obtained from the National Cancer Institute (NCI) Developmental Therapeutics Program Chemical Repository. The FDA-approved anticancer drug set is available from the Developmental Therapeutics Program. […] The stock solutions were prepared in dimethyl sulfoxide (DMSO, Sigma-Aldrich, St. Louis, MO, cat. D2650) at 800-fold the tested concentration and stored at -70 degrees C prior to their use. All drugs and investigational agents were tested over a range starting from a high concentration at or near the clinical Cmax and decreasing in half-log increments. If the clinical Cmax for an agent had not been determined, the highest concentration tested was 10 microM.
Cell Culture. All cells were maintained in an incubator at 37 degrees C and 5% CO2 with 95% humidity. The PDC lines were cultured according to standard operating procedures established by the NCI PDMR (https://pdmr.cancer.gov/sops/default.htm). Briefly, all PDCs were thawed and cultured in Matrigel-coated flasks prepared with a working solution of 1X Ham's F-12 nutrient mix, without supplementation (Invitrogen, Waltham, MA, cat. 11765054), 100 U/mL penicillin-streptomycin (Invitrogen, cat. 15140122), and 2.5% Matrigel (Corning Inc., Corning, NY, cat. 354248) for the first three passages. All PDCs were cultured in complete DMEM/F-12 media containing advanced DMEM/F-12 (Invitrogen, cat. 12634028), 4.9% defined fetal bovine serum, heat inactivated (HyClone Laboratories Inc., Logan, UT, cat. SH30070.03HI), 389 ng/mL hydrocortisone (Sigma-Aldrich, cat. H4001), 9.7 ng/mL human EGF recombinant protein (Invitrogen, cat. PHG0313), 23.4 microg/mL adenine (Sigma-Aldrich, cat. A2786), 97.3 U/mL penicillin-streptomycin (Invitrogen, cat. 15140122), 1.9 mM L-glutamine (Invitrogen, cat. 25030081), and 9.7 microM Y-27632 dihydrochloride (Tocris Bioscience, Bristol, United Kingdom, cat. 1254). The PDCs were cultured in complete DMEM/F12 media without 9.7 microM Y-27632 dihydrochloride for at least two passages prior to the screen. The established cell line HOP-62 was cultured in RPMI 1640 medium, HEPES (Invitrogen, cat. 22400105) with 10% defined fetal bovine serum (HyClone Laboratories Inc., cat. SH30070.03) and 2 mM L-glutamine (Invitrogen, cat. 25030081). The pooled donor HUVEC were cultured in endothelial cell growth medium 2 (PromoCell, Heidelberg, Germany, cat. C-22011) and the hMSC were cultured in mesenchymal stem cell growth medium 2 (PromoCell, cat. C-28009). […]

[1] = compound alone, run of 05/05/2024

C=CC(=O)N1CCN(c2nc(=O)n(-c3c(C)ccnc3C(C)C)c3nc(-c4c(O)cccc4F)c(F)cc23)C(C)C1 (stereo not drawn)
viability, T/C (compound 0.0316 µM): 99.5% [middle of 9 runs]
viability, T/C (compound 10 µM): 117% [middle of 9 runs]
IC50 [1]: > 10 µM

C=CC(=O)N1CCN(c2nc(OCC3CCCN3C)nc3c2CCN(c2cccc4cccc(C)c24)C3)CC1CC#N (stereo not drawn)
viability, T/C (compound 0.03 µM): 94.9% [middle of 9 runs]
viability, T/C (compound 0.949 µM): 73.6% [middle of 9 runs]
viability, T/C (compound 3 µM): 80.8% [middle of 9 runs]
IC50 [1]: > 3 µM

CC(=O)Nc1cccc(-n2c(=O)n(C3CC3)c(=O)c3c(Nc4ccc(I)cc4F)n(C)c(=O)c(C)c32)c1
viability, T/C (compound 94.9 pM): 110% [middle of 5 runs]
viability, T/C (compound 0.000949 µM): 118% [middle of 5 runs]
viability, T/C (compound 0.00949 µM): 71.8% [middle of 5 runs]
viability, T/C (compound 0.03 µM): 17.6% [middle of 5 runs]
IC50 (curve of compound): 14.7 nM [middle of 5 runs]

CC(=O)OC12COC1CC(O)C1(C)C(=O)C(O)C3=C(C)C(OC(=O)C(O)C(NC(=O)OC(C)(C)C)c4ccccc4)CC(O)(C(OC(=O)c4ccccc4)C21)C3(C)C (stereo not drawn)
viability, T/C (compound 0.00949 µM): 45.1% [middle of 5 runs]
viability, T/C (compound 0.03 µM): 44.2% [middle of 5 runs]
viability, T/C (compound 0.0949 µM): 47.2% [middle of 5 runs]
viability, T/C (compound 0.3 µM): 47.1% [middle of 4 runs]
viability, T/C (compound 0.949 µM): 47.9% [middle of 5 runs]
viability, T/C (compound 3 µM): 58.1% [middle of 5 runs]
IC50 (curve of compound): < 0.00949 µM

CC(C)NCC(C(=O)N1CCN(c2ncnc3c2C(C)CC3O)CC1)c1ccc(Cl)cc1 (stereo not drawn)
viability, T/C (compound 0.316 µM): 83.5% [middle of 5 runs]
viability, T/C (compound 1 µM): 71.7% [middle of 5 runs]
viability, T/C (compound 10 µM): 51.3% [middle of 5 runs]
IC50 (curve of compound): > 10 µM and 2.61 µM and 9.3 µM

CC(C)n1nc(-c2ccc3oc(N)nc3c2)c2c(N)ncnc21
viability, T/C (compound 0.001 µM): 68.3% [middle of 5 runs]
viability, T/C (compound 0.00316 µM): 51.2% [middle of 5 runs]
viability, T/C (compound 0.01 µM): 47.9% [middle of 5 runs]
viability, T/C (compound 0.0316 µM): 47.5% [middle of 5 runs]
viability, T/C (compound 0.1 µM): 43.9% [middle of 5 runs]

CC1(C)CCC(CN2CCN(c3ccc(C(=O)NS(=O)(=O)c4ccc(NCC5CCOCC5)c([N+](=O)[O-])c4)c(Oc4cnc5[nH]ccc5c4)c3)CC2)=C(c2ccc(Cl)cc2)C1
viability, T/C (compound 0.0316 µM): 90.6% [middle of 5 runs]
viability, T/C (compound 0.1 µM): 95.1% [middle of 5 runs]
viability, T/C (compound 0.316 µM): 83% [middle of 5 runs]
viability, T/C (compound 1 µM): 90.2% [middle of 5 runs]
viability, T/C (compound 3.16 µM): 69% [middle of 5 runs]
viability, T/C (compound 10 µM): 4.4% [middle of 5 runs]
IC50 (curve of compound): 4.56 µM [middle of 4 runs]

CC1COCCN1c1cc(-c2ccnn2C)c2ccnc(-c3ccn[nH]3)c2n1 (stereo not drawn)
viability, T/C (compound 0.03 µM): 80.5% [middle of 5 runs]
viability, T/C (compound 0.0949 µM): 87.6% [middle of 5 runs]
viability, T/C (compound 0.3 µM): 73.6% [middle of 5 runs]
viability, T/C (compound 0.949 µM): 56.7% [middle of 5 runs]
viability, T/C (compound 3 µM): 47.6% [middle of 5 runs]
IC50 (curve of compound): > 3 µM and 1.95 µM and 2.38 µM

CC1OCC2(CCN(c3cnc(Sc4ccnc(N)c4Cl)c(N)n3)CC2)C1N (stereo not drawn)
IC50 [1]: > 10 µM
IC50 (curve of compound): > 10 µM

CCN1CCN(Cc2ccc(Nc3ncc(F)c(-c4cc(F)c5nc(C)n(C(C)C)c5c4)n3)nc2)CC1
viability, T/C (compound 0.01 µM): 86.6% [middle of 5 runs]
viability, T/C (compound 0.0316 µM): 87.7% [middle of 5 runs]
viability, T/C (compound 0.1 µM): 83.9% [middle of 5 runs]
viability, T/C (compound 0.316 µM): 99.4% [middle of 5 runs]
IC50 (curve of compound): > 1 µM

CCNC(=O)CC1N=C(c2ccc(Cl)cc2)c2cc(OC)ccc2-n2c(C)nnc21 (stereo not drawn)
viability, T/C (compound 0.0316 µM): 87.2% [middle of 5 runs]
viability, T/C (compound 0.1 µM): 86.6% [middle of 5 runs]
IC50 (curve of compound): > 10 µM

CN(C)C/C=C/C(=O)Nc1cc2c(Nc3ccc(F)c(Cl)c3)ncnc2cc1O[C@H]1CCOC1
viability, T/C (compound 0.000316 µM): 99.9% [middle of 5 runs]
viability, T/C (compound 0.001 µM): 91% [middle of 5 runs]
viability, T/C (compound 0.00316 µM): 90.5% [middle of 5 runs]
viability, T/C (compound 0.0316 µM): 85.3% [middle of 5 runs]
IC50 (curve of compound): > 0.1 µM

CNCc1ccccc1-c1csc(C(C)Nc2nc(C)nc3cc(OC)c(OC)cc23)c1 (stereo not drawn)
viability, T/C (compound 0.0316 µM): 88.4% [middle of 9 runs]
viability, T/C (compound 0.316 µM): 84.6% [middle of 9 runs]
viability, T/C (compound 10 µM): 0.41% [middle of 8 runs]
IC50 [1]: 5.29 µM [middle of 8 runs]

COC(=O)c1ccc2c(C(=Nc3ccc(N(C)C(=O)CN4CCN(C)CC4)cc3)c3ccccc3)c(O)[nH]c2c1
viability, T/C (compound 1 µM): 58.1% [middle of 5 runs]
viability, T/C (compound 3.16 µM): 39.6% [middle of 5 runs]
viability, T/C (compound 10 µM): 0.37% [middle of 5 runs]
IC50 (curve of compound): 1.96 µM [middle of 5 runs]

COc1cc(Nc2ncc3c(n2)-c2ccc(Cl)cc2C(c2c(F)cccc2OC)=NC3)ccc1C(=O)O
viability, T/C (compound 0.1 µM): 90.3% [middle of 5 runs]
viability, T/C (compound 0.316 µM): 96% [middle of 5 runs]
viability, T/C (compound 1 µM): 94% [middle of 5 runs]
viability, T/C (compound 3.16 µM): 104% [middle of 5 runs]
viability, T/C (compound 10 µM): 61.2% [middle of 5 runs]
IC50 (curve of compound): > 10 µM

COc1cc(OC)cc(N(CCNC(C)C)c2ccc3ncc(-c4cnn(C)c4)nc3c2)c1
viability, T/C (compound 0.0316 µM): 60.9% [middle of 5 runs]
viability, T/C (compound 0.1 µM): 45.4% [middle of 5 runs]
viability, T/C (compound 0.316 µM): 38.2% [middle of 5 runs]
viability, T/C (compound 1 µM): 38.3% [middle of 5 runs]
viability, T/C (compound 3.16 µM): 41.8% [middle of 5 runs]
viability, T/C (compound 10 µM): 34.8% [middle of 5 runs]
IC50 (curve of compound): 66.1 nM [middle of 5 runs]

COc1cc2nc(C)nc(NC(C)c3cc(N)cc(C(F)(F)F)c3)c2cc1OC1CCOC1 (stereo not drawn)
viability, T/C (compound 0.0316 µM): 99.5% [middle of 9 runs]
viability, T/C (compound 0.316 µM): 97.3% [middle of 9 runs]
viability, T/C (compound 10 µM): 66.7% [middle of 9 runs]
IC50 [1]: > 10 µM

COc1cc2nccc(Oc3ccc(NC(=O)C4(C(=O)Nc5ccc(F)cc5)CC4)cc3)c2cc1OC
viability, T/C (compound 0.0316 µM): 76.8% [middle of 5 runs]
viability, T/C (compound 0.1 µM): 79% [middle of 5 runs]
viability, T/C (compound 0.316 µM): 70.8% [middle of 5 runs]
viability, T/C (compound 1 µM): 71.4% [middle of 5 runs]
viability, T/C (compound 10 µM): 36% [middle of 5 runs]
IC50 (curve of compound): 6.87 µM [middle of 5 runs]

Cn1nccc1Nc1nccc(-c2cc3c(s2)C(C)(C)N(CCN2CCOCC2)C3=O)n1
viability, T/C (compound 0.0316 µM): 91.1% [middle of 5 runs]
viability, T/C (compound 0.1 µM): 105% [middle of 5 runs]
viability, T/C (compound 1 µM): 99.3% [middle of 5 runs]
viability, T/C (compound 3.16 µM): 40.5% [middle of 5 runs]
viability, T/C (compound 10 µM): 5.24% [middle of 5 runs]
IC50 (curve of compound): 2.65 µM [middle of 5 runs]

Cn1ncnc1[C@H]1c2n[nH]c(=O)c3cc(F)cc(c23)N[C@@H]1c1ccc(F)cc1
viability, T/C (compound 0.001 µM): 87.9% [middle of 5 runs]
viability, T/C (compound 0.00316 µM): 83.8% [middle of 5 runs]
viability, T/C (compound 0.01 µM): 90.7% [middle of 5 runs]
viability, T/C (compound 0.0316 µM): 88.1% [middle of 5 runs]
viability, T/C (compound 0.1 µM): 84.2% [middle of 5 runs]
IC50 (curve of compound): > 0.1 µM

O=C(c1cc(Cc2n[nH]c(=O)c3ccccc23)ccc1F)N1CCN(C(=O)C2CC2)CC1
viability, T/C (compound 0.316 µM): 90.8% [middle of 5 runs]
viability, T/C (compound 1 µM): 89.3% [middle of 5 runs]
viability, T/C (compound 10 µM): 95.3% [middle of 5 runs]
IC50 (curve of compound): > 10 µM
